Converted amounts (≈) assume the structure as drawn. The source made the active and inactive calls. No cut-off for these calls is given here.
Assays:
Bacillus subtilis = experiment: Antimicrobial activity against antibiotic-resistant Bacillus subtilis ATCC 6623 assessed as inhibition of visible growth measured after 20 to 24 hrs incubation by CLSI method; type: functional; conditions: time 20-24 hrs
Staphylococcus aureus [1] = experiment: Antimicrobial activity against Staphylococcus aureus ATCC 25923 assessed as inhibition of biofilm formation by measuring prevention of turbidity after 24 hrs incubation by Real-time monitoring method; type: functional
Staphylococcus aureus [2] = experiment: Antimicrobial activity against antibiotic-susceptible Staphylococcus aureus ATCC 25923 assessed as inhibition of biofilm formation by measuring prevention of turbidity after 24 hrs incubation by Real-time monitoring method; type: functional
Staphylococcus aureus [3] = experiment: Antimicrobial activity against antibiotic-susceptible Staphylococcus aureus ATCC 25923 assessed as inhibition of biofilm formation after 24 hrs incubation by Real-time monitoring method; type: functional
Enterococcus faecalis [4] = experiment: Antimicrobial activity against antibiotic-susceptible Enterococcus faecalis ATCC 29212 assessed as inhibition of biofilm formation by measuring prevention of turbidity after 24 hrs incubation by Real-time monitoring method; type: functional
Enterococcus faecium [5] = experiment: Antimicrobial activity against antibiotic-resistant Enterococcus faecium ATCC 700221 assessed as inhibition of visible growth measured after 20 to 24 hrs incubation by CLSI method; type: functional; conditions: time 20-24 hrs
Staphylococcus aureus [6] = experiment: Antimicrobial activity against antibiotic-susceptible Staphylococcus aureus ATCC 25923 assessed as inhibition of biofilm formation on plastic coverslips at 0.5 times of MIC measured after 24 hrs by electron microscopy; type: functional, organism-based
Enterococcus faecalis [7] = experiment: Antimicrobial activity against antibiotic-resistant Enterococcus faecalis ATCC 51299 assessed as inhibition of visible growth measured after 20 to 24 hrs incubation by CLSI method; type: functional; conditions: time 20-24 hrs
Enterococcus faecium [8] = experiment: Antimicrobial activity against Enterococcus faecium […] assessed as inhibition of biofilm formation after 24 hrs incubation by Real-time monitoring method; type: functional
Staphylococcus aureus [9] = experiment: Antimicrobial activity against Staphylococcus aureus ATCC 25923 assessed as eradication of biofilm measured after 24 hrs incubation by Calgary method; type: functional
Staphylococcus aureus [10] = experiment: Antimicrobial activity against methicilline-resistant Staphylococcus aureus ATCC 700699 persisters assessed as reduction in initial persister concentration at 2 times of MIC concentration measured for 2 to 8 hrs by Persisters time course assay; type: functional, organism-based; conditions: time 2-8 hrs
Staphylococcus aureus [11] = experiment: Antimicrobial activity against clinical isolate Staphylococcus aureus Smu57 assessed as inhibition of growth measured after 20 to 24 hrs incubation by CLSI method; type: functional; conditions: time 20-24 hrs
Staphylococcus aureus [12] = experiment: Antimicrobial activity against antibiotic-resistant Staphylococcus aureus ATCC BAA-2312 assessed as inhibition of visible growth measured after 20 to 24 hrs incubation by CLSI method; type: functional; conditions: time 20-24 hrs
Staphylococcus aureus [13] = experiment: Antimicrobial activity against clinical isolate Staphylococcus aureus Smu109 assessed as inhibition of growth measured after 20 to 24 hrs incubation by CLSI method; type: functional; conditions: time 20-24 hrs
Erythrocyte [14] = experiment: Hemolytic activity in sheep red blood cells assessed as hemolysis at 16 to 32 ug/ml incubated for 30 mins relative to control; type: toxicity, cell-based, Ovis aries; conditions: 0.5 h, dose 16-32 µg/ml
Cell membrane [15] = experiment: Induction of membrane permeability in Staphylococcus aureus ATCC 700699 assessed as increase in fluorescence at 0.5 to 2 times of MIC incubated for 15 mins measured for 1 hr by propidium iodide/real time fluorescence based flow cytometry; type: subcellular; conditions: time 75.0 min
Staphylococcus aureus [16] = experiment: Bactericidal activity in antibiotic-resistant Staphylococcus aureus ATCC 700699 assessed as reduction in viable cell count at 4 times of MIC measured upto 24 hrs by time kill assay; type: functional, organism-based
Staphylococcus aureus [17] = experiment: Antimicrobial activity against Staphylococcus aureus UAB159 assessed as inhibition of growth measured after 20 to 24 hrs incubation by CLSI method; type: functional; conditions: time 20-24 hrs
[18] = system: Panel NCI-60 (60 carcinoma cell lines); experiment: Cytotoxicity against human panel NCI-60 (60 carcinoma cell lines)cells assessed as cell viability at 10 uM measured after 24 hrs by resazurin assay; type: functional, cell-based
Erythrocyte [19] = experiment: Hemolytic activity in sheep red blood cells assessed as hemolysis at 64 ug/ml incubated for 30 mins relative to control; type: toxicity, cell-based, Ovis aries; conditions: 0.5 h, at 64 µg/mL
Staphylococcus aureus [20] = experiment: Antimicrobial activity against methicilline-resistant Staphylococcus aureus ATCC 700699 persisters assessed as reduction in initial persister concentration at 16 times of MIC concentration measured for 2 hrs by Persisters time course assay; type: functional, organism-based
Staphylococcus aureus [21] = experiment: Antimicrobial activity against clinical isolate Staphylococcus aureus Smu9 assessed as inhibition of growth measured after 20 to 24 hrs incubation by CLSI method; type: functional; conditions: time 20-24 hrs
Staphylococcus aureus [22] = experiment: Antimicrobial activity against clinical isolate Staphylococcus aureus Smu81 assessed as inhibition of growth measured after 20 to 24 hrs incubation by CLSI method; type: functional; conditions: time 20-24 hrs
Staphylococcus aureus [23] = experiment: Antimicrobial activity against Staphylococcus aureus ATCC 25923 assessed as inhibition of visible growth measured after 20 to 24 hrs incubation by CLSI method; type: functional; conditions: time 20-24 hrs
Staphylococcus aureus [24] = experiment: Antimicrobial activity against methicilline-resistant Staphylococcus aureus ATCC 700699 persisters assessed as reduction in initial persister concentration at 8 times of MIC concentration measured for 8 hrs by Persisters time course assay; type: functional
Staphylococcus aureus [25] = experiment: In vivo antimicrobial activity against Staphylococcus aureus USA300 infected in Caenorhabditis elegans AU37 nematodes assessed as viability of nematodes incubated for 5 days by susceptibility test; type: functional; conditions: USA300, 120 h, time 5 day
Staphylococcus aureus [26] = experiment: Antimicrobial activity against antibiotic-resistant Staphylococcus aureus ATCC 33591 assessed as inhibition of visible growth measured after 20 to 24 hrs incubation by CLSI method; type: functional; conditions: time 20-24 hrs
Enterococcus faecalis [27] = experiment: Antimicrobial activity against Enterococcus faecalis ATCC 29212 assessed as inhibition of biofilm formation by measuring prevention of turbidity after 24 hrs incubation by Real-time monitoring method; type: functional
Staphylococcus aureus [28] = experiment: Antimicrobial activity against methicilline-resistant Staphylococcus aureus ATCC 700699 persisters assessed as bacterial killing at 32 time of MIC concentration measured for every 2 hrs upto 8 hrs by Persisters time course assay; type: functional, organism-based
Staphylococcus aureus [29] = experiment: In vivo antimicrobial activity against Staphylococcus aureus Newman infected in Caenorhabditis elegans AU37 nematodes assessed as viability of nematodes incubated for 5 days by susceptibility test; type: functional; conditions: 120 h, time 5 day
Staphylococcus aureus [30] = experiment: Antimicrobial activity against antibiotic-resistant Staphylococcus aureus ATCC 33592 assessed as inhibition of visible growth measured after 20 to 24 hrs incubation by CLSI method; type: functional; conditions: time 20-24 hrs
Cell membrane [31] = experiment: Induction of membrane permeability in Staphylococcus aureus ATCC 700699 assessed as increase in fluorescence at 8 times of MIC incubated for 15 mins measured for 1 hr by propidium iodide/real time fluorescence based flow cytometry; type: subcellular
Enterococcus faecalis [32] = experiment: Antimicrobial activity against antibiotic-susceptible Enterococcus faecalis ATCC 29212 assessed as eradication of biofilm measured after 24 hrs incubation by Calgary method; type: functional
Staphylococcus aureus [33] = experiment: In vivo antimicrobial activity against Staphylococcus aureus UAMS-1 infected in Caenorhabditis elegans AU37 nematodes assessed as viability of nematodes incubated for 5 days by susceptibility test; type: functional; conditions: UAMS-1, 120 h, time 5 day
Staphylococcus aureus [34] = experiment: Resistance development in methicillin-sensitive Staphylococcus aureus ATCC 25923 assessed as fold increase in MIC at 0.5 times of MIC measured at 4 to 6 th passages by multistep resistance assay; type: functional
Staphylococcus aureus [35] = experiment: Antimicrobial activity against clinical isolate Staphylococcus aureus Smu21 assessed as inhibition of growth measured after 20 to 24 hrs incubation by CLSI method; type: functional; conditions: time 20-24 hrs
Staphylococcus aureus [36] = experiment: Antimicrobial activity against methicillin-resistant Staphylococcus aureus USA300 infected in liquid-based Caenorhabditis elegans co-infection model assessed as rescue of worms by measuring viability at 2 ug/ml incubated for 5 days (reference value: 20%); type: functional; conditions: dose 2 µg/ml; time 5 day
Cell membrane [37] = experiment: Induction of membrane permeability in Staphylococcus aureus ATCC 700699 assessed as increase in fluorescence intensity at 2 times of MIC incubated for 15 mins measured for 1 hr by propidium iodide/real time fluorescence based flow cytometry Rvb = 3.5); type: subcellular; conditions: time 75.0 min
Cell membrane [38] = experiment: Induction of membrane permeability in Staphylococcus aureus ATCC 700699 assessed as increase in fluorescence intensity at 1 times of MIC incubated for 15 mins measured for 1 hr by propidium iodide/real time fluorescence based flow cytometry Rvb = 3.5); conditions: time 75.0 min
[39] = Toxicity in Caenorhabditis elegans AU37 assessed as survival at 4 ug/ml measured for 4 days; conditions: 96 h, dose 4 µg/ml, time 4 day
Cell membrane [40] = experiment: Induction of membrane permeability in Staphylococcus aureus ATCC 700699 assessed as increase in fluorescence intensity at 4 times of MIC incubated for 15 mins measured for 1 hr by propidium iodide/real time fluorescence based flow cytometry Rvb = 3.5); conditions: time 75.0 min
Cell membrane [41] = experiment: Induction of membrane permeability in Staphylococcus aureus ATCC 700699 assessed as increase in fluorescence at 4 times of MIC incubated for 15 mins measured for 1 hr by propidium iodide/real time fluorescence based flow cytometry; type: subcellular; conditions: time 75.0 min
[42] = Toxicity in Caenorhabditis elegans AU37 assessed as survival at 20 ug/ml measured for 4 days; conditions: at 20 µg/mL, time 4 day
Staphylococcus aureus [43] = experiment: Antimicrobial activity against methicillin-resistant Staphylococcus aureus USA300 infected in liquid-based Caenorhabditis elegans co-infection model assessed as rescue of worms by measuring viability at 1 ug/ml incubated for 5 days (reference value: 20%); type: functional; conditions: dose 1 µg/ml; time 5 day
Staphylococcus aureus [44] = experiment: Antimicrobial activity against methicillin-resistant Staphylococcus aureus USA300 infected in liquid-based Caenorhabditis elegans co-infection model assessed as rescue of worms by measuring viability at 4 ug/ml incubated for 5 days (reference value: 20%); type: functional; conditions: dose 4 µg/ml; time 5 day

Row | SMILES | MIC (Bacillus subtilis) | MIC (Staphylococcus aureus [1]) | MBBC (Enterococcus faecalis [4]) | MBIC (Enterococcus faecium [8]) | MIC (Staphylococcus aureus [12]) | Activity (Erythrocyte [14]) | Activity (Cell membrane [15]) | Activity (Staphylococcus aureus [16]) | MIC (Staphylococcus aureus [17]) | Activity [18] | Activity (Erythrocyte [19]) | MIC (Staphylococcus aureus [21]) | MIC (Staphylococcus aureus [22]) | MIC (Staphylococcus aureus [25]) | MIC (Staphylococcus aureus [26]) | MIC (Enterococcus faecalis [27]) | Activity (Staphylococcus aureus [28]) | MIC (Staphylococcus aureus [29]) | MIC (Staphylococcus aureus [30]) | Activity (Cell membrane [31]) | also measured
1 | CN[C@H](CC(C)C)C(=O)N[C@H]1C(=O)N[C@@H](CC(N)=O)C(=O)N[C@H]2C(=O)N[C@H]3C(=O)N[C@H](C(=O)N[C@H](C(=O)O)c4cc(O)cc(O)c4-c4cc3ccc4O)[C@H](O)c3ccc(c(Cl)c3)Oc3cc2cc(c3O[C@@H]2O[C@H](CO)[C@@H](O)[C@H](O)[C@H]2O[C@H]2C[C@](C)(N)[C@H](O)[C@H](C)O2)Oc2ccc(cc2Cl)[C@H]1O [VANCOMYCIN] | 0.25 µg/mL (≈ 0.173 µM) | 8 µg/mL (≈ 5.52 µM) | >16 µg/mL | >16 µg/mL | – | – | – | – | – | – | – | – | – | – | – | – | – | – | – | – | MBBC (Staphylococcus aureus [2]): >16 µg/mL; MBIC (Staphylococcus aureus [3]): >16 µg/mL; MIC (Enterococcus faecium [5]): > 32 µg/mL; Activity (Staphylococcus aureus [6]): Active; MIC (Enterococcus faecalis [7]): > 32 µg/mL; MBEC (Staphylococcus aureus [9]): >32 µg/mL
2 | O=C(O)c1ccc(-n2cc(CNc3ccc(Br)c(C(F)(F)F)c3)c(-c3cccc(F)c3)n2)cc1 | 0.5 µg/mL (≈ 0.936 µM) | 2 µg/mL (≈ 3.74 µM) | – | 8 µg/mL | 1 µg/mL (≈ 1.87 µM) | Non-Toxic | inactive | Active | 4 µg/mL (≈ 7.49 µM) | inactive | < 10% | 4 µg/mL (≈ 7.49 µM) | 4 µg/mL (≈ 7.49 µM) | 1 µg/mL (≈ 1.87 µM) | 0.5 µg/mL (≈ 0.936 µM) | 8 µg/mL (≈ 15 µM) | Active | 1 µg/mL (≈ 1.87 µM) | 0.5 µg/mL (≈ 0.936 µM) | inactive | Activity (Staphylococcus aureus [10]): inactive; MIC (Staphylococcus aureus [11]): 2 µg/mL (≈ 3.74 µM); MIC (Staphylococcus aureus [13]): 2 µg/mL (≈ 3.74 µM); Activity (Staphylococcus aureus [20]): Active; MIC (Staphylococcus aureus [23]): 1 µg/mL (≈ 1.87 µM); log(activity) (Staphylococcus aureus [24]): 6; MBEC (Enterococcus faecalis [32]): 2 µg/mL; MIC (Staphylococcus aureus [33]): 1 µg/mL (≈ 1.87 µM); fold change (FC) (Staphylococcus aureus [34]): 2; MIC (Staphylococcus aureus [35]): 4 µg/mL (≈ 7.49 µM)
3 | O=C(O)c1ccc(-n2cc(CNc3ccc(Cl)c(C(F)(F)F)c3)c(-c3cccc(F)c3)n2)cc1 | 0.5 µg/mL (≈ 1.02 µM) | 4 µg/mL (≈ 8.17 µM) | 16 µg/mL | 8 µg/mL | 1 µg/mL (≈ 2.04 µM) | Non-Toxic | inactive | Active | 4 µg/mL (≈ 8.17 µM) | inactive | < 10% | 2 µg/mL (≈ 4.08 µM) | 4 µg/mL (≈ 8.17 µM) | 2 µg/mL (≈ 4.08 µM) | 1 µg/mL (≈ 2.04 µM) | 8 µg/mL (≈ 16.3 µM) | Active | 1 µg/mL (≈ 2.04 µM) | 1 µg/mL (≈ 2.04 µM) | inactive | Activity (Staphylococcus aureus [36]): 90%; Activity (Cell membrane [37]): 32.3%; Activity (Cell membrane [38]): 22.3%; Activity [39]: Non-Toxic; Activity (Cell membrane [40]): 95.6%; Activity (Cell membrane [41]): Active; survival at 96 h, 20 ug/ml [42]: > 80%; Activity (Staphylococcus aureus [43]): 90%; Activity (Staphylococcus aureus [44]): 90%; MIC (Staphylococcus aureus [33]): 1 µg/mL (≈ 2.04 µM); MIC (Staphylococcus aureus [35]): 4 µg/mL (≈ 8.17 µM)
